The values that follow come from patent publication US5008283A (Pfizer Inc., priority 1990, dated 1991).

Molecules are shown by their SMILES.

For test [1], the system named is collagenase. Briefly: Inhibition of release of activated collagenase by IgG-stimulated neutrophils. It counts as cell-based, human. Conditions: for inhibitory effect on the release of activated collagenase by neutrophils (in words): as shown in Table I; for Inhibition of Activated Neutrophil Collagenase Release, % Inhibition: human neutrophils on IgG coated wells; for inhibitory effect on the release of activated collagenase (in words): at supraphysiological concentrations for those compounds. The source says:
(§1) Whole human blood from normal volunteers was obtained by venipuncture into heparinized syringes. The majority of the red cells were removed by dextran sedimentation and neutrophils were separated by density centrifugation over hypaque ficoll. The neutrophil rich fraction was washed and residual red cells were removed by hypotonic lysis according to the procedure described by Blackburn, W.D. et al., Arthritis Rheum. 30:1006-1014 (1987). The neutrophils so prepared were used in the assays described below and cell viability was assured by determining their ability to exclude typan blue. In each assay the cell viability routinely exceeded 95%.
To assay for inhibition of release of activated collagenase by neutrophils,the following assay was performed. Neutrophil cell suspensions were incubated at 37° C. for 15-30 minutes in the presence of varying concentrations of tenidap or other compound under study. Tenidap was dissolved and diluted in water and added to the cells directly therefrom. Other compounds tested were initially dissolved in 0.1M NaOH and then diluted in water prior to addition to the cells. After the cells had been incubated in the presence of tenidap or other compound under study, the cell suspensions (5 × 10^6 cells/ml, 125 μl/well) were added to IgG coated and bovine serum albumin (BSA) blocked wells of microtiter plates and incubated for 45 minutes at 37° C. As controls, similar incubations were performed in the absence of IgG. Following incubation, the cell suspensions were centrifuged (750 × g) for 5 minutes at 4° C. The supernatants were removed and DFP (diisopropylfluorophosphate) was added to a final concentration of 10^-3 M to inactivate serine proteases.
Then, the collagenase activity in the DFP treated supernatants was determined by incubating, in triplicate, 200 μl aliquots of supernatant with ^3 H-labeled reconstituted type-I collagen fibrils in 7 mm flat bottom tissue culture wells (Linbro®, Cat #76-032-05, Flow Laboratories McLean, Va) as described by Johnson-Wint, B., Anal. Biochem. 104:175-181 (1980). The reconstituted fibrils in each well contained 75 μg of a mixture of ^3 H-labeled and unlabeled collagen with an activity of 7,000 cpm. To determine the total radioactivity potentially released from the fibrils in each experiment, the reconstituted fibrils were also incubated with a mixture of clostridial collagenase (250 mg/ml HBSS (Hank's balanced salt solution, GIBCO, Grand Island, N.Y.)). To maximize sensitivity and specificity of the assay, incubations were performed for eighteen hours in triplicate at 37° C. At the end of the incubation period, the supernatants were aspirated from each well and the radioactivity was determined by counting in a liquid scintillation counter. Greater than 99% of the radioactivity applied to each well was recovered from wells incubated with bacterial collagenase. Average counts per minute released by fibrils incubated with buffer (HBSS) alone were subtracted from the cpm measured in each supernatant. The resulting triplicate values for each supernatant were averaged and divided by the average cpm released by the bacterial collagenase to determine the percent fibril lysis produced by each supernatant. The total activated collagen released during the eighteen hour incubation was then calculated and divided by the incubation time to yield values for the collagenase activity (ng collagen degraded/min) in each supernatant.

In another test the test system is myeloperoxidase. Briefly: Myeloperoxidase activity assay (ABTS/hydrogen peroxide, absorbance at 412 nm). The class given is biochemical. Conditions: myeloperoxidase extracted from human neutrophils; varying concentrations of tenidap; figures not given.
Description: as §1
Neutrophils (1.25 × 10^6 /ml, prepared as described above) were incubated for 60 minutes at 37° C. in either BSA or IgG coated tissue culture wells which had been blocked with BSA. Following incubation, the wells were aspirated and the cells were removed by centrifugation. […] Myeloperoxidase activity was then determined by adding 20 μl of the supernatant to 300 μl of 0.2M sodium acetate buffer, pH 4.5, containing 17 mg of 2,2'-azino-di-(3-ethylbenzthiazoline)sulfonic acid and 600 μl of 0.003% hydrogen peroxide. The activity of myeloperoxidase in the supernatant was then determined by the change in absorbance at 412 nm using a spectrophotometer as described by Shindler, J.S. et al., Eur. J. Biochem. 65:325-331 (1976).

The test system of test [2] is collagenase. As to the kind of experiment: Total collagenase released by IgG-stimulated neutrophils (supernatants activated with mersalyl). It counts as cell-based, human. As to conditions: supernatants activated with organic mercurial, tenidap concentration not given.
Description: as §1
In parallel experiments, release of total collagenase into the supernatants was determined by activating latent collagenase in the supernatants with 1.0 mM mersalyl (Harris, E.D. and Vater, C.A., Methodology of collagenase research: substrate purification, enzyme activation and purification. Collagenase in Normal Pathological Connective Tissues. Edited by D. E. Woolley, J. M. Evanson, Chichester, John Wiley & Sons, 1980) prior to addition of the supernatants to the radiolabeled collagen fibrils. […]

With `COc1ccc2cc([C@H](C)C(=O)O)ccc2c1` [Naproxen], in the test on collagenase [1], the “inhibitory effect on the release of activated collagenase by neutrophils (in words)” value was “no inhibitory effect”. In the test with collagenase [1] (peak concentration 80 μM), the “Inhibition of Activated Neutrophil Collagenase Release, % Inhibition” value (shortened to “Inhibition … % Inhibition”) turned out to be 0%.

Take `CC(C)Cc1ccc(C(C)C(=O)O)cc1` (stereo not drawn) [Ibuprofen]: in the test with collagenase [1], the “inhibitory effect on the release of activated collagenase by neutrophils (in words)” value is on record as “no inhibitory effect”. In the test with collagenase [1] (peak concentration 175 μM), the “Inhibition … % Inhibition” value is reported as 0%.

With `COc1ccc2c(c1)c(CC(=O)O)c(C)n2C(=O)c1ccc(Cl)cc1` [Indomethacin], the “inhibitory effect on the release of activated collagenase (in words)” value in the test with collagenase [1] is on record as “some inhibitory effect”. For the same compound, in the test on collagenase [1] (peak concentration 2.5 μM), the “Inhibition … % Inhibition” value is listed as 14%.

Consider `CN1C(C(=O)Nc2ccccn2)=C(O)c2ccccc2S1(=O)=O` [Piroxicam], for which the “inhibitory effect on the release of activated collagenase (in words)” value in the test with collagenase [1] is listed as “some inhibitory effect”. In addition, the “Inhibition … % Inhibition” value with collagenase [1] (peak concentration 25 μM) was found to be 18%.

As for `NC(=O)N1C(=O)C(C(=O)c2cccs2)c2cc(Cl)ccc21` (stereo not drawn) [Tenidap, 5-chloro-2,3-dihydro-2-oxo-3-(2-thienylcarbonyl)-indole-1-carboxamide], the “inhibition of the activity of myeloperoxidase (in words)” value in the test on myeloperoxidase is on record as “inhibit the activity of myeloperoxidase”. Further, in the test on collagenase [2], the “inhibition of the total amount of collagenase released by neutrophils” value is 22%. Moreover, in the test with collagenase [1] (at clinically relevant concentrations), the “inhibition of the release of activated collagenase from neutrophils (in words)” value is “significantly inhibited”. Further, the “Inhibition … % Inhibition” value in the test on collagenase [1] (peak concentration 87.5 μM) turned out to be 64%.
